Experiment [1] addresses T1, Adrenergic receptor alpha-1 (Rattus norvegicus, UniProt P15823+P23944+P43140).
T1 sequence (P15823 whole entry): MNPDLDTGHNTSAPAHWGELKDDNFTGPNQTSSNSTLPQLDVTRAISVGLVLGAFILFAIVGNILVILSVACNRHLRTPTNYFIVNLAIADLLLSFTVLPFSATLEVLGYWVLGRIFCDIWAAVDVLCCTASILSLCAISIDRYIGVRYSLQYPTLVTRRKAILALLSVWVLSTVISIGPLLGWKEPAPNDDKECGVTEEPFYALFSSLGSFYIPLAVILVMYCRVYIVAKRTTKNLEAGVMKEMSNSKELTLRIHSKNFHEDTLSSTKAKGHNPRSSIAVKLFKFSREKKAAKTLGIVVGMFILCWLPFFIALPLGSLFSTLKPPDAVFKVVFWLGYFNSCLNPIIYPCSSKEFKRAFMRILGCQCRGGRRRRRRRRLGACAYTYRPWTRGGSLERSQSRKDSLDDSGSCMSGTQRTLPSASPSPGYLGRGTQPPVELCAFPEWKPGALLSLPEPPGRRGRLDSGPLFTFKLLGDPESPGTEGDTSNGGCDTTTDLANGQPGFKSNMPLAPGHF
T1 sequence (P23944 whole entry): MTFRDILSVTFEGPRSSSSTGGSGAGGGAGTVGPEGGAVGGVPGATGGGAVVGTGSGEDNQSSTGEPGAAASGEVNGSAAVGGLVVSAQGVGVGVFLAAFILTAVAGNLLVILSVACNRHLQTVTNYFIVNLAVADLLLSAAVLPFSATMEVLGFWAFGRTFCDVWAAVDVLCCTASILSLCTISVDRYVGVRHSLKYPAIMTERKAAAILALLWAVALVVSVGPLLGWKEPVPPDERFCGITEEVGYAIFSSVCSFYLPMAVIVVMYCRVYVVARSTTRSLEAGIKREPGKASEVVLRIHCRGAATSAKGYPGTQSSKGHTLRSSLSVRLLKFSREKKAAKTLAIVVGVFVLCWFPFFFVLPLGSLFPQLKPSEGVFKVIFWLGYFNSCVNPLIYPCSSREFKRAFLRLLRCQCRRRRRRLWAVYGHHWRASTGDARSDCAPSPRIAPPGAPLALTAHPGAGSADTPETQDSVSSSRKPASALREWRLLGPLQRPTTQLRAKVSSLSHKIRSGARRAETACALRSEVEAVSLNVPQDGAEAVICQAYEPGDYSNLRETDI
T1 sequence (P43140 whole entry): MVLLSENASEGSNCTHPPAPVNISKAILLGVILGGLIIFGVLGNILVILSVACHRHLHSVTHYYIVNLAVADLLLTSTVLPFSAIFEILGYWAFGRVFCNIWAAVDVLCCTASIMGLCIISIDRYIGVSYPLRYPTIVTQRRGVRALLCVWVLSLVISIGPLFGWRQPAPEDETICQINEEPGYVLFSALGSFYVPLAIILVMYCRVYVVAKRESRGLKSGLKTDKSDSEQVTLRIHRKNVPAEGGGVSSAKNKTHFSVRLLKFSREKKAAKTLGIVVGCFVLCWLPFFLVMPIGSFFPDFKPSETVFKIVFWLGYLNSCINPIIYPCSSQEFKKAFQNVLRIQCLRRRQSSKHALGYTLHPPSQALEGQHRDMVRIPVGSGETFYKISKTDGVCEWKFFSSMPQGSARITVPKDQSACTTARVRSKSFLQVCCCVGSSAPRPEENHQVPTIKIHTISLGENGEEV
The experiment can be described thus: Binding affinity towards Alpha-1 adrenergic receptor in rat cerebral cortex membranes using [3H]prazosin as radioligand. The class given is cell membranes, Membrane.

The target of experiment [2] is T2, 5-hydroxytryptamine receptor 1A (Rattus norvegicus, UniProt P19327).
T2 sequence (P19327 whole entry): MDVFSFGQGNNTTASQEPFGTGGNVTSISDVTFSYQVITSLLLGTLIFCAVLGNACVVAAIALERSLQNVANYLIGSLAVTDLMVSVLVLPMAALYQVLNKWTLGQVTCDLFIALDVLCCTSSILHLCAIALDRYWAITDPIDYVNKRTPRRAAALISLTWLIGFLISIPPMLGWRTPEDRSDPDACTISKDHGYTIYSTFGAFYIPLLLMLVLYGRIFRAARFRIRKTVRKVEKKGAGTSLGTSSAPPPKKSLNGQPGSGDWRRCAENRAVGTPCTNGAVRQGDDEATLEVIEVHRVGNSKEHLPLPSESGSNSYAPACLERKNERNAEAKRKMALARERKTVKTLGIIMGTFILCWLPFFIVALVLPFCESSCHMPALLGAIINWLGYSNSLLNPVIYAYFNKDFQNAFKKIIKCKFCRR
As to the kind of experiment: Binding affinity towards 5-HT 1A receptor in rat cerebral cortex membranes using [3H]8-OH-DPAT as radioligand. It is filed as cell membranes, Membrane.

For experiment [3], the target named is 5-hydroxytryptamine receptor 7 (Rattus norvegicus, UniProt P32305). As to the kind of experiment: Binding affinity towards 5-HT 7 receptor in rat hypothalamus membranes using [3H]5-CT as radioligand. The class given is cell membranes, Membrane.
5-hydroxytryptamine receptor 7, sequence (P32305 whole entry): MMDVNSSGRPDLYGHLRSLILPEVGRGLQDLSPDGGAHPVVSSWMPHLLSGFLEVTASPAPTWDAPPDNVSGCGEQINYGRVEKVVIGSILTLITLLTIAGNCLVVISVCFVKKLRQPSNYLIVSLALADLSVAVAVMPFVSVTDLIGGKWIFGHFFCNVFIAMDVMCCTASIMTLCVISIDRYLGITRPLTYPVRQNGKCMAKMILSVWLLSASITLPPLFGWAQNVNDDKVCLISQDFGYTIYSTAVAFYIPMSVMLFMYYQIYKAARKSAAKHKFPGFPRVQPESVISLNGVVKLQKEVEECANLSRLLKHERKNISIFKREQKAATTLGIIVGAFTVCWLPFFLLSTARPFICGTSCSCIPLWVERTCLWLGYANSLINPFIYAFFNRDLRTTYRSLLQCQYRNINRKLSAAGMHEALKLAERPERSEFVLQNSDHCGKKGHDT
For the next experiment, the target named is D(2) dopamine receptor (Rattus norvegicus, UniProt P61169). The experiment can be described thus: Binding affinity towards dopamine D2 receptor in rat striatum membranes using [3H]raclopride as radioligand. The class given is cell membranes, Membrane.
D(2) dopamine receptor, sequence (P61169 whole entry): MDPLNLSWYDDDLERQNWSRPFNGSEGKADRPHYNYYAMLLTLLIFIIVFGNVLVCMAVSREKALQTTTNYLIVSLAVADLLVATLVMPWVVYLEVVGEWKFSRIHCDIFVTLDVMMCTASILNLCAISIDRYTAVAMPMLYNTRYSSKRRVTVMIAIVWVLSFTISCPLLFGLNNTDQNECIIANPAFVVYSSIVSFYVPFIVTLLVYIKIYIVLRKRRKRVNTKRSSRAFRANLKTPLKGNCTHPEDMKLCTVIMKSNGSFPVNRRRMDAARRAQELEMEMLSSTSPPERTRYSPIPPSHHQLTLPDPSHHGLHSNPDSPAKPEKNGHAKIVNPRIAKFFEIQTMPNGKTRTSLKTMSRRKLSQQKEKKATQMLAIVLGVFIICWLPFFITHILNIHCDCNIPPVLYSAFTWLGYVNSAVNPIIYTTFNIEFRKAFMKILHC
Experiment [4] addresses 5-hydroxytryptamine receptor 2A (Rattus norvegicus, UniProt P14842). As to the kind of experiment: Binding affinity towards 5-HT 2A receptor in rat cerebral frontal cortex membranes using [3H]ketanserin as radioligand. The class given is tissue-based, Membrane.
Experiment [5] deals with GABA-A receptor; anion channel. As to the kind of experiment: Displacement of [3H]flunitrazepam from GABA-A benzodiazepine receptor of rat cerebral cortex membranes. It is filed as cell membranes, Membrane. For orientation: In a radioligand displacement assay an active substance lowers the binding of a labelled ligand.
The target in experiment [6] is 5-hydroxytryptamine receptor 4 (Rattus norvegicus, UniProt Q62758). The experiment can be described thus: Binding affinity towards 5-HT 4 receptor in rat striatum membranes using [3H]GR-113808 as radioligand. It is filed as cell membranes, Membrane.
5-hydroxytryptamine receptor 4, sequence (Q62758 whole entry): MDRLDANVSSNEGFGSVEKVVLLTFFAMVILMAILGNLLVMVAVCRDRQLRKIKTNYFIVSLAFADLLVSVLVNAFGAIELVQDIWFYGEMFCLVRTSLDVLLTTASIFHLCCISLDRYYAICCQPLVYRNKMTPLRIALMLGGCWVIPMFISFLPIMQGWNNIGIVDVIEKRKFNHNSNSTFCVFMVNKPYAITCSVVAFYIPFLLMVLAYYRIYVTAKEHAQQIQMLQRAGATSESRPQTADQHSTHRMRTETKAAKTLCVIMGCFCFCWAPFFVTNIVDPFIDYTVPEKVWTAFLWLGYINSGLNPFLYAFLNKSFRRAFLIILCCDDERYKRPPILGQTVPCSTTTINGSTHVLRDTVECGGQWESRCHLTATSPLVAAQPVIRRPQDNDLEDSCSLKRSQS
The target of experiment [7] is Sodium-dependent serotonin transporter (Rattus norvegicus, UniProt P31652). As to the kind of experiment: Binding affinity towards 5-HT transporter in rat cerebral cortex membranes using [3H]paroxetine as radioligand. The class given is cell membranes, Membrane.
Sodium-dependent serotonin transporter, sequence (P31652 whole entry): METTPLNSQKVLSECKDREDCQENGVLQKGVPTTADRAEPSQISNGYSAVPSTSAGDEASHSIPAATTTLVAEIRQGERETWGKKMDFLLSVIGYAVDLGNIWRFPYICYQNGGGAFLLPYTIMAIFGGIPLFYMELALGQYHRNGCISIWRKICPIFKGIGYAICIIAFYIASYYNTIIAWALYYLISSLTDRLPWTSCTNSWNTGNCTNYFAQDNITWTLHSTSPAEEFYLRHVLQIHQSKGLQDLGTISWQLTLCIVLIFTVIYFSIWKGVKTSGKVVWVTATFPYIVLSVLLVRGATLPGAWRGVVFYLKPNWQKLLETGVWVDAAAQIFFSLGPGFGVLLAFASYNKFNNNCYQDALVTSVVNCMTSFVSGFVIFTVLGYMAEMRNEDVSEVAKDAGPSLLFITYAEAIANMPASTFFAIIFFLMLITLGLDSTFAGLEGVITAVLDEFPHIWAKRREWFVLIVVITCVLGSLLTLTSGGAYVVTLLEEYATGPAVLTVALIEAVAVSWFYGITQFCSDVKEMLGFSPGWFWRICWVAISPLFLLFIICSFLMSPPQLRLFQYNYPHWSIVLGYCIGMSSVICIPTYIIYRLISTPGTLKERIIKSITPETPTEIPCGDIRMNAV

SMILES strings stand for the structures. A value given as a limit tells only on which side of the number the result lay.

5-hydroxytryptamine receptor 2A, sequence (P14842 whole entry): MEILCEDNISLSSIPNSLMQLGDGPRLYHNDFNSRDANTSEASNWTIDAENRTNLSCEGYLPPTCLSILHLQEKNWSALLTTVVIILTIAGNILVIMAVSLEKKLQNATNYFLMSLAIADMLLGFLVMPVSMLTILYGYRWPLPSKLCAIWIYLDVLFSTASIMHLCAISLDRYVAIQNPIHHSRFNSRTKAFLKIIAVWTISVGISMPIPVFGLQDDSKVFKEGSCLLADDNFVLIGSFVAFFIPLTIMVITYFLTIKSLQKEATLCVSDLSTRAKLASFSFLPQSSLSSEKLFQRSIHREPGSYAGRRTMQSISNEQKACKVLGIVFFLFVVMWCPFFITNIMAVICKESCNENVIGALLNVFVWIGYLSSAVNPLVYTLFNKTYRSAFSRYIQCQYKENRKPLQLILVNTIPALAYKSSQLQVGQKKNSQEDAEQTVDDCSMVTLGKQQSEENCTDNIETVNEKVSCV

For the compound `O=C1C2CCCN2C(=O)CN1CN1CCN(c2cccc3c2COCCO3)CC1` (configuration not stated), the results for the Ki in experiment [1] and in experiment [2] were over 1000 nM and 12.3 nM, respectively.

In the case of `O=C1C2CCCCN2C(=O)N1CN1CCN(c2cccc3c2COCCO3)CC1` (configuration not stated), the Ki (as a rule, the equilibrium dissociation constant of an inhibitor or competing ligand from its target) in experiment [1] was over 1000 nM; in experiment [2], 6.1 nM.

With `O=C1C2CCCN2C(=O)N1CN1CCN(c2cccc3ccccc23)CC1` (configuration not stated), the Ki in experiment [1] is over 1000 nM; in experiment [2], 10.4 nM.

`O=C1C2CCCN2C(=O)CN1CN1CCN(c2cccc3ccccc23)CC1` (configuration not stated): the inhibition constant (Ki) in experiment [1] is over 1000 nM; in experiment [2], 4.1 nM; in experiment [3], 101 nM; at D(2) dopamine receptor, 192 nM; in experiment [4] it was 13.5 nM; in experiment [5] it was over 10000 nM. Also, the Ki in experiment [6] is over 10000 nM; in experiment [7], 976 nM.

For `O=C1C2CCCCN2C(=O)N1CN1CCN(c2cccc3c2OCCO3)CC1` (configuration not stated), the inhibition constant (Ki) is over 1000 nM in experiment [1] and 9.3 nM in experiment [2].

`O=C1C2CCCN2C(=O)N1CCCCN1CCN(c2cccc3ccccc23)CC1` (configuration not stated): the Ki in experiment [1] was 64.9 nM; in experiment [2], 2.4 nM.

Consider `O=C1C2CCCCN2C(=O)N1CN1CCN(c2cccc3ccccc23)CC1` (configuration not stated), for which the Ki in experiment [1] was over 1000 nM; in experiment [2] it was 5.6 nM.

As for `O=C1C2CCCN2C(=O)N1CN1CCN(c2cccc3[nH]cnc23)CC1` (configuration not stated), the Ki in experiment [1] worked out at 10000 nM; in experiment [2], 4.1 nM.

Source of the values: ChEMBL document CHEMBL1136702, “Design and synthesis of S-(-)-2-[[4-(napht-1-yl)piperazin-1-yl]methyl]-1,4-dioxoperhydropyrrolo[1,2-a]pyrazine (CSP-2503) using computational simulation. A 5-HT1A receptor agonist” (Bioorg Med Chem Lett, 2003).
